Our source for the Ki values is patent publication US11725007B2, “Meta tyrosine derivatives as rho-kinase inhibitors” (Chiesi Farmaceutici S.p.A., priority 2017, dated 2023).

For orientation: Ki means a measure of affinity in units of concentration, obtained from inhibition or displacement. A lower Ki goes with a stronger hold on the target.

The structures appear in SMILES notation. Bounds are passed on as bounds.

For one assay, the target named is Rho kinase 2 (ROCK2) (Homo sapiens, UniProt O75116). In words: In vitro Rho kinase inhibitory activity assay (ADP-Glo), ROCK2. Format: biochemical. The settings on record: 10 μM ATP, Myelin Basic Protein substrate, 25° C., Ki by Cheng-Prusoff. The protocol:
(§1) The effectiveness of compounds of the invention to inhibit Rho kinase activity can be determined in a 10 μl assay containing 40 mM Tris pH7.5, 20 mM MgCl2 0.1 mg/ml BSA, 50 μM DTT and 2.5 μM peptide substrate (Myelin Basic Protein) using an ADP-Glo kit (Promega). Compounds were dissolved in DMSO such that the final concentration of DMSO was 1% in the assay. All reactions/incubations are performed at 25° C. Compound (2 ul) and either Rho kinase 1 or 2 (4 μl) were mixed and incubated for 30 mins. Reactions were initiated by addition of ATP (4 μl) such that the final concentration of ATP in the assay was 10 μM. After a 1 hour incubation 10 μl of ADP-Glo Reagent was added and after a further 45 minute incubation 20 ul of Kinase Detection Buffer was added and the mixture incubated for a further 30 minutes. The luminescent signal was measured on a luminometer. […] Compounds were tested in dose-response format and the inhibition of kinase activity was calculated at each concentration of compound. To determine the IC50 (concentration of compound required to inhibit 50% of the enzyme activity) data were fit to a plot of % inhibition vs Log10 compound concentration using a sigmoidal fit with a variable slope and fixing the maximum to 100% and the minimum to 0%. To determine the Ki values the Cheng-Prusoff equation was utilized (Ki=IC50/(1+[S]/Km)
On the technique in general: ADP-Glo turns the ADP formed in a reaction into a luminescent signal.

A further assay deals with Rho kinase 1 (ROCK1) (Homo sapiens, UniProt Q13464). As to the kind of experiment: In vitro Rho kinase inhibitory activity assay (ADP-Glo), ROCK1. Particulars: 10 μM ATP, Myelin Basic Protein substrate, 25° C., Ki by Cheng-Prusoff. Format: biochemical. How it is done:
as §1

Rho kinase 2 (ROCK2), sequence (O75116 whole entry): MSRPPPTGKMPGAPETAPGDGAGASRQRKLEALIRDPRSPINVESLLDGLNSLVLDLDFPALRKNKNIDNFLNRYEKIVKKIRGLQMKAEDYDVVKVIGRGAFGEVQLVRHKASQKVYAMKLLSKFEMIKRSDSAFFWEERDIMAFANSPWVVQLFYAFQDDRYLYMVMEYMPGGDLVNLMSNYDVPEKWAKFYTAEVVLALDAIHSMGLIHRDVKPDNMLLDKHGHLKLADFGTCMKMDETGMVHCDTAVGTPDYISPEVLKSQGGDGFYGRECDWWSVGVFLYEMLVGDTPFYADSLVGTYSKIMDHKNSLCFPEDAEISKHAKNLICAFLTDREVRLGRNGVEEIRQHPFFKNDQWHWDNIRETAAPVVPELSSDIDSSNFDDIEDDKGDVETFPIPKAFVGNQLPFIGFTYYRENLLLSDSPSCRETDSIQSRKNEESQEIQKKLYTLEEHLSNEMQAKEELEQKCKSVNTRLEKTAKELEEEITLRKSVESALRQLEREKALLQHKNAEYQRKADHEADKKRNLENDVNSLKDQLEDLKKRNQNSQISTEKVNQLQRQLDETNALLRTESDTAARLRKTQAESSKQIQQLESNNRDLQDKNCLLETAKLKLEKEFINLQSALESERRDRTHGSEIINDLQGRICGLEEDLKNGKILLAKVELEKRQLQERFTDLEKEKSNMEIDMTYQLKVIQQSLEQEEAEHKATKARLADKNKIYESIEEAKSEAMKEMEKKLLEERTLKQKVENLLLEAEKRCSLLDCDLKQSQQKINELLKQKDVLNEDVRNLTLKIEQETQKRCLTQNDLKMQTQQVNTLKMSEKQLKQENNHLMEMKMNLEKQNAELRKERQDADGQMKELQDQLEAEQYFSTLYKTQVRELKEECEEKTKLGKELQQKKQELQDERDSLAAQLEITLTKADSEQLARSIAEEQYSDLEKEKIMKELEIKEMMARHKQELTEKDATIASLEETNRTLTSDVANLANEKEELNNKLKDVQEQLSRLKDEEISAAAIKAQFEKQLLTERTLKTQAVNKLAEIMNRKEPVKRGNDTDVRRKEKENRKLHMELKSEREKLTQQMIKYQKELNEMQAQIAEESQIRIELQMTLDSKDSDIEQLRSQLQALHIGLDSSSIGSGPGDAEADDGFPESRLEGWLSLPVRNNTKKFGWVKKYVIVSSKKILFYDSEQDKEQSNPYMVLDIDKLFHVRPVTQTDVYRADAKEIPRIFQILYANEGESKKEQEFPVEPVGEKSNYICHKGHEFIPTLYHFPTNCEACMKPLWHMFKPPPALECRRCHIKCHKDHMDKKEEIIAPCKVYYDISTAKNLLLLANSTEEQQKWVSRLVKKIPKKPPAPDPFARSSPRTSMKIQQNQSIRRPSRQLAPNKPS
Rho kinase 1 (ROCK1), sequence (Q13464 whole entry): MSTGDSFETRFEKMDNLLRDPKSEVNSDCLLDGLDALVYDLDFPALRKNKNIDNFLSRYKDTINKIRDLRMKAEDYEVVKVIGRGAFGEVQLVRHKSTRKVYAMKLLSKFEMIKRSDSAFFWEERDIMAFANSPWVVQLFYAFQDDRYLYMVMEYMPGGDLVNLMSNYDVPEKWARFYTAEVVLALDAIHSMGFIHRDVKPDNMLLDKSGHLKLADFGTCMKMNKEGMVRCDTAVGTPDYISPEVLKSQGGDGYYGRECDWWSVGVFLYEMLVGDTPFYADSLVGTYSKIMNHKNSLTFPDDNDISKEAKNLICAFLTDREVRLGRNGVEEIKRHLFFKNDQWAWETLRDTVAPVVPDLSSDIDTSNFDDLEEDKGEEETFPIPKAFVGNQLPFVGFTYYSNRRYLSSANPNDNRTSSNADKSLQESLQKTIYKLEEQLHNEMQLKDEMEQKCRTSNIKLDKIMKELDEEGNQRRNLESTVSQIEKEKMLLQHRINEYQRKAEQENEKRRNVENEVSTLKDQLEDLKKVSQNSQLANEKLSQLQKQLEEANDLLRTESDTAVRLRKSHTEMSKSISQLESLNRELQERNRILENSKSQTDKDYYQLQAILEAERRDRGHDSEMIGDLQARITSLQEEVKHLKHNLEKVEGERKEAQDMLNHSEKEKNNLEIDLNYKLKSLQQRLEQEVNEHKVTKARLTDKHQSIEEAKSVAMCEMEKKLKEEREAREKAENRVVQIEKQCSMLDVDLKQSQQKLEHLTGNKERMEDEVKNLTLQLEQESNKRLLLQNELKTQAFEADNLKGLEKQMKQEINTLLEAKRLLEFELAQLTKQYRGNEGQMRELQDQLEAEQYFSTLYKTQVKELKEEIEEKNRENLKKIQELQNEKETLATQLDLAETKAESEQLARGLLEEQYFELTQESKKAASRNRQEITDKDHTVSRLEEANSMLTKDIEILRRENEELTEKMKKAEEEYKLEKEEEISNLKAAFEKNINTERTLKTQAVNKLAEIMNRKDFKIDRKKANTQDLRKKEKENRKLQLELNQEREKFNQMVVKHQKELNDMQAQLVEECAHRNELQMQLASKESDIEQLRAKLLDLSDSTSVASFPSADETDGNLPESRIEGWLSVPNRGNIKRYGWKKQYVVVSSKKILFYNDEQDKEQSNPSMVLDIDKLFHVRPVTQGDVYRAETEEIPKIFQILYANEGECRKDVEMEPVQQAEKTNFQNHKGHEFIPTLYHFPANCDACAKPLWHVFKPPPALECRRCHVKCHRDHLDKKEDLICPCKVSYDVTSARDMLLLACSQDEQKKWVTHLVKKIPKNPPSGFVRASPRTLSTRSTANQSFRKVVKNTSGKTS

Turning to `Cc1c[nH]c2nccc(Oc3cccc(CC(N)C(=O)NCCc4ccncc4)c3)c12` (centres unmarked) [Example 4, 2-amino-3-(3-((3-methyl-1H-pyrrolo[2,3-b]pyridin-4-yl)oxy)phenyl)-N-(2-(pyridin-4-yl)ethyl)propanamide], the Ki at Rho kinase 2 (ROCK2) and on Rho kinase 1 (ROCK1) was below 5 nM in each case.

On to `Cc1c[nH]c2nccc(Oc3cccc(CC(N)C(=O)N4CCN(C)CC4)c3)c12` (centres unmarked) [Example 1, 2-Amino-3-(3-((3-methyl-1H-pyrrolo[2,3-b]pyridin-4-yl)oxy)phenyl)-1-(4-methylpiperazin-1-yl)propan-1-one], for which the Ki at Rho kinase 2 (ROCK2) and on Rho kinase 1 (ROCK1) was 5 to 50 nM each time.

Take `COCCCNC(=O)C(N)Cc1cccc(Oc2ccnc3[nH]cc(C)c23)c1` (centres unmarked) [Example 2, 2-amino-N-(3-methoxypropyl)-3-(3-((3-methyl-1H-pyrrolo[2,3-b]pyridin-4-yl)oxy)phenyl)propanamide]: the Ki on Rho kinase 2 (ROCK2) and at Rho kinase 1 (ROCK1) was 5 to 50 nM in each case.

As for `Cc1c[nH]c2nccc(Oc3cccc(C(CN)CC(=O)NCCCN(C)C)c3)c12` (centres unmarked) [Example 15, 4-amino-N-(3-(dimethylamino)propyl)-3-(3-((3-methyl-1H-pyrrolo[2,3-b]pyridin-4-yl)oxy)phenyl)butanamide], the Ki at Rho kinase 2 (ROCK2) and at Rho kinase 1 (ROCK1) was above 50 nM in each case.

On to `COCCCNC(=O)C(CN)Cc1cccc(Oc2ccnc3[nH]cc(C)c23)c1` (centres unmarked) [Example 10, 3-amino-N-(3-methoxypropyl)-2-(3-((3-methyl-1H-pyrrolo[2,3-b]pyridin-4-yl)oxy)benzyl)propanamide], for which the Ki on Rho kinase 2 (ROCK2) and at Rho kinase 1 (ROCK1) was 5 to 50 nM in each case.

Consider `Cc1c[nH]c2nccc(Oc3cccc(C(N)CC(=O)N4CCN(C)CC4)c3)c12` (centres unmarked) [Example 5, 3-amino-3-(3-((3-methyl-1H-pyrrolo[2,3-b]pyridin-4-yl)oxy)phenyl)-1-(4-methylpiperazin-1-yl)propan-1-one], for which the inhibitory constant (Ki) at Rho kinase 2 (ROCK2) and on Rho kinase 1 (ROCK1) was 5 to 50 nM each time.

Regarding `Cc1c[nH]c2nccc(Oc3cccc(C(N)CC(=O)NCCCN(C)C)c3)c12` (centres unmarked) [Example 8, 3-amino-N-(3-(dimethylamino)propyl)-3-(3-((3-methyl-1H-pyrrolo[2,3-b]pyridin-4-yl)oxy)phenyl)propanamide], the Ki on Rho kinase 2 (ROCK2) and on Rho kinase 1 (ROCK1) was above 50 nM in each case.

Consider `Cc1c[nH]c2nccc(Oc3cccc(CC(CN)C(=O)N4CCN(C)CC4)c3)c12` (centres unmarked) [Example 9, 3-amino-2-(3-((3-methyl-1H-pyrrolo[2,3-b]pyridin-4-yl)oxy)benzyl)-1-(4-methylpiperazin-1-yl)propan-1-one], for which the Ki at Rho kinase 2 (ROCK2) and at Rho kinase 1 (ROCK1) was above 50 nM throughout.

In the case of `Cc1c[nH]c2nccc(Oc3cccc(CC(N)C(=O)NCCCN(C)C)c3)c12` (centres unmarked) [Example 3, 2-amino-N-(3-(dimethylamino)propyl)-3-(3-((3-methyl-1H-pyrrolo[2,3-b]pyridin-4-yl)oxy)phenyl)propanamide], the Ki at Rho kinase 2 (ROCK2) and on Rho kinase 1 (ROCK1) was above 50 nM each time.

Consider `Cc1c[nH]c2nccc(Oc3cccc(C(N)CC(=O)NCCc4ccncc4)c3)c12` (centres unmarked) [Example 7, 3-amino-3-(3-((3-methyl-1H-pyrrolo[2,3-b]pyridin-4-yl)oxy)phenyl)-N-(2-(pyridin-4-yl)ethyl)propanamide], for which the Ki on Rho kinase 2 (ROCK2) and at Rho kinase 1 (ROCK1) was 5 to 50 nM throughout.

Take `COCCCNC(=O)CC(CN)c1cccc(Oc2ccnc3[nH]cc(C)c23)c1` (centres unmarked) [Example 14, 4-amino-N-(3-methoxypropyl)-3-(3-((3-methyl-1H-pyrrolo[2,3-b]pyridin-4-yl)oxy)phenyl)butanamide]: the Ki on Rho kinase 2 (ROCK2) and on Rho kinase 1 (ROCK1) was 5 to 50 nM in each case.

`COCCCNC(=O)CC(N)c1cccc(Oc2ccnc3[nH]cc(C)c23)c1` (centres unmarked) [Example 6, 3-amino-N-(3-methoxypropyl)-3-(3-((3-methyl-1H-pyrrolo[2,3-b]pyridin-4-yl)oxy)phenyl)propanamide]: the Ki on Rho kinase 2 (ROCK2) and on Rho kinase 1 (ROCK1) was 5 to 50 nM each time.

Regarding `Cc1c[nH]c2nccc(Oc3cccc(C(CN)CC(=O)NCCc4ccncc4)c3)c12` (centres unmarked) [Example 13, 4-Amino-3-(3-((3-methyl-1H-pyrrolo[2,3-b]pyridin-4-yl)oxy)phenyl)-N-(2-(pyridin-4-yl)ethyl)butanamide], the Ki on Rho kinase 2 (ROCK2) and at Rho kinase 1 (ROCK1) was 5 to 50 nM throughout.

On to `Cc1c[nH]c2nccc(Oc3cccc(C(CN)CC(=O)N4CCN(C)CC4)c3)c12` (centres unmarked) [Example 16, 4-amino-3-(3-((3-methyl-1H-pyrrolo[2,3-b]pyridin-4-yl)oxy)phenyl)-1-(4-methylpiperazin-1-yl)butan-1-one], for which the Ki at Rho kinase 2 (ROCK2) and on Rho kinase 1 (ROCK1) was 5 to 50 nM each time.

With `Cc1c[nH]c2nccc(Oc3cccc(CC(CN)C(=O)NCCc4ccncc4)c3)c12` (centres unmarked) [Example 11, 3-amino-2-(3-((3-methyl-1H-pyrrolo[2,3-b]pyridin-4-yl)oxy)benzyl)-N-(2-(pyridin-4-yl)ethyl)propanamide], the inhibition constant (Ki) at Rho kinase 2 (ROCK2) and on Rho kinase 1 (ROCK1) was 5 to 50 nM throughout.

With `Cc1c[nH]c2nccc(Oc3cccc(CC(CN)C(=O)NCCCN(C)C)c3)c12` (centres unmarked) [Example 12, 3-amino-N-(3-(dimethylamino)propyl)-2-(3-((3-methyl-1H-pyrrolo[2,3-b]pyridin-4-yl)oxy)benzyl)propanamide], the inhibition constant Ki at Rho kinase 2 (ROCK2) and at Rho kinase 1 (ROCK1) was above 50 nM throughout.
